# Experimental data: US20060069132A1, “Azolecarboxamide herbicides” (priority 2004, published 2006)
# Columns and labels:
# barnyardgrass [1] = experiment: Test B pre-/postemergence herbicide test; assay type: in vivo, Echinochloa crus-galli; conditions: for Plant response rating (0 to 100 scale), Barnyardgrass: 0 is no effect
# How it was run: (§1)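 Test chemicals in a non-phytotoxic solvent mixture with surfactant were applied preemergence to seeded species and postemergence to plants 2-18 cm tall (1- to 4-leaf stage); rice and barnyardgrass were also tested in a flooded paddy at the 2-leaf stage. Visual rating versus controls after 13-15 days in greenhouse, scale 0 (no effect) to 100 (complete control).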
# Surinam grass = experiment: Test B pre-/postemergence herbicide test; assay type: in vivo, Urochloa decumbens; conditions: for Plant response rating (0 to 100 scale), Surinam Grass: 0 is no effect
# How it was run: (§2)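 Response was scored visually 13 to 15 days after treatment against untreated greenhouse controls, 0 meaning no effect and 100 complete control. Formulations (solvent mixture plus surfactant) went onto soil after planting, onto foliage of 1- to 4-leaf plants, and onto 2-leaf plants in a flooded paddy set including rice and barnyardgrass.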
# cocklebur = experiment: Test B pre-/postemergence herbicide test; assay type: in vivo, Xanthium strumarium; conditions: for Plant response rating (0 to 100 scale), Cocklebur: 0 is no effect
# How it was run: as §1
# corn = experiment: Test B pre-/postemergence herbicide test; assay type: in vivo, Zea mays; conditions: for Plant response rating (0 to 100 scale), Corn: 0 is no effect
# How it was run: as §2
# large crabgrass = experiment: Test B pre-/postemergence herbicide test; assay type: in vivo, Digitaria sanguinalis; conditions: for Plant response rating (0 to 100 scale), Crabgrass, Large: 0 is no effect
# How it was run: as §2
# giant foxtail = experiment: Test B pre-/postemergence herbicide test; assay type: in vivo, Setaria faberi; conditions: for Plant response rating (0 to 100 scale), Foxtail, Giant: 0 is no effect
# How it was run: as §2
# lambsquarters = experiment: Test B pre-/postemergence herbicide test; assay type: in vivo, Chenopodium album; conditions: for Plant response rating (0 to 100 scale), Lambsquarters: 0 is no effect
# How it was run: as §2
# morningglory = experiment: Test B pre-/postemergence herbicide test; assay type: in vivo, Ipomoea coccinea; conditions: for Plant response rating (0 to 100 scale), Morningglory: 0 is no effect
# How it was run: as §1
# pigweed = experiment: Test B pre-/postemergence herbicide test; assay type: in vivo, Amaranthus retroflexus; conditions: for Plant response rating (0 to 100 scale), Pigweed: 0 is no effect
# How it was run: as §2
# velvetleaf = experiment: Test B pre-/postemergence herbicide test; assay type: in vivo, Abutilon theophrasti; conditions: for Plant response rating (0 to 100 scale), Velvetleaf: 0 is no effect, preemergence
# How it was run: as §2
# blackgrass = experiment: Test B postemergence herbicide test; assay type: in vivo, Alopecurus myosuroides
# How it was run: (§3)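 Paddy species grown to the 2-leaf stage under flooding; blackgrass sprayed postemergence at 2–18 cm (1- to 4-leaf stage). Plants kept in a greenhouse for 13 to 15 days, then visually rated against controls on 0 (no effect) to 100 (complete control).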
# wheat = experiment: Test B postemergence herbicide test; assay type: in vivo, Triticum aestivum; parameters: key to Wheat plant response rating: 0 = no effect, 100 = complete control
# How it was run: (§4)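 Greenhouse test; postemergence application to plants at 1–4 leaves (2–18 cm); paddy species at 2 leaves; evaluated visually vs controls at 13–15 days; scale 0–100 (100 = complete control).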
# wild oat = experiment: Test B postemergence herbicide test; assay type: in vivo, Avena fatua
# How it was run: as §4
# rice [2] = experiment: Test B flooded paddy test; assay type: in vivo, Oryza sativa; conditions: 1000 g ai/ha, scale 0 to 100 (0 no effect, 100 complete control)
# How it was run: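 Postemergence plants were sprayed with formulated test chemicals at 2 to 18 cm height (1- to 4-leaf stage); paddy species were grown to the 2-leaf stage. After 13 to 15 days in a greenhouse, injury was rated visually against untreated controls on a 0–100 scale (0 = no effect, 100 = complete control).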
# [3] = tested on: small flower umbrella sedge; experiment: Test B flooded paddy test; assay type: in vivo, Cyperus difformis; conditions: 1000 g ai/ha, scale 0 to 100 (0 no effect, 100 complete control)
# How it was run: as §3
# ducksalad [4] = experiment: Test B flooded paddy test; assay type: in vivo, Heteranthera limosa; conditions: 1000 g ai/ha, scale 0 to 100 (0 no effect, 100 complete control)
# How it was run: as §3
# barnyardgrass [5] = experiment: Test B flooded paddy test; assay type: in vivo, Echinochloa crus-galli; conditions: 1000 g ai/ha, scale 0 to 100 (0 no effect, 100 complete control)
# How it was run: as §3
# rice [6] = experiment: Test C flooded paddy test; assay type: in vivo, Oryza sativa; conditions: for Plant response rating, Rice: 500 g ai/ha, visual rating after 12 to 14 days
# How it was run: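 Postemergence sprays applied to plants 2 to 18 cm tall (1- to 4-leaf stage); paddy species grown to 2-leaf stage under flooding. After 12 to 14 days in greenhouse, visual rating versus untreated controls on 0–100 scale (0 no effect, 100 complete control).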
# [7] = tested on: smallflower umbrella sedge; experiment: Test C flooded paddy test; assay type: in vivo, Cyperus difformis; conditions: for Plant response rating, Sedge, Umbrella: 500 g ai/ha, visual rating after 12 to 14 days
# ducksalad [8] = experiment: Test C flooded paddy test; assay type: in vivo, Heteranthera limosa; conditions: for Plant response rating, Ducksalad: 500 g ai/ha, visual rating after 12 to 14 days
# barnyardgrass [9] = experiment: Test C flooded paddy test; assay type: in vivo, Echinochloa crus-galli; conditions: for Plant response rating, Barnyardgrass: 500 g ai/ha, visual rating after 12 to 14 days
# How it was run: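 Plants were grown to the 1- to 4-leaf stage (2–18 cm) and then treated postemergence, or grown to the 2-leaf stage for the flooded paddy test. They were held in a greenhouse for 12 to 14 days and then scored by eye against controls, where 0 is no effect and 100 is complete control.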
# [10] = 125 g ai/ha, 100 is complete control, preemergence
# [11] = Postemergence, 500 g ai/ha, scale 0 (no effect) to 100 (complete control)
# [12] = postemergence, 125 g ai/ha, scale 0 to 100
# [13] = 125 g ai/ha, 100 is complete control
# [14] = 125 g ai/ha, scale 0 to 100 (0 no effect, 100 complete control)
# [15] = 250 g ai/ha, scale of 0 to 100, 0 is no effect, 100 is complete control
# [16] = scale 0 to 100 (0 no effect, 100 complete control)
# [17] = 62 g ai/ha, scale 0 to 100 (0 no effect, 100 complete control)
# [18] = 125 g ai/ha, visual rating, scale 0 (no effect) to 100 (complete control), postemergence
# [19] = 500 g ai/ha, visual rating, 0 = no effect, 100 = complete control, preemergence
# [20] = postemergence, 500 g ai/ha, scale 0 to 100, 0 is no effect, 100 is complete control
smiles,measurement,setting,value
CCN(C)C(=O)c1cccc(NC(=O)c2nn(C(C)C)nc2C)c1 [Compound 407],"Plant response rating (0 to 100 scale), Barnyardgrass",barnyardgrass [1]; [10],40
same,Barnyardgrass plant response rating,"barnyardgrass [1]; Postemergence, 125 g ai/ha, scale 0 (no effect) to 100 (complete control)",0
same,Barnyardgrass plant response rating,barnyardgrass [1]; [11],10
same,"Plant response rating (0 to 100 scale), Surinam Grass",Surinam grass; [10],30
same,Surinam Grass plant response rating,Surinam grass; [11],20
same,Surinam Grass plant response rating,Surinam grass; [12],0
same,"Plant response rating (0 to 100 scale), Cocklebur",cocklebur; [10],10
same,Cocklebur plant response rating,cocklebur; [11],20
same,Cocklebur plant response rating,cocklebur; [12],10
same,"Plant response rating (0 to 100 scale), Corn",corn; [10],0
same,Corn plant response rating,corn; [11],20
same,Corn plant response rating,corn; [12],10
same,"Plant response rating (0 to 100 scale), Crabgrass, Large",large crabgrass; [10],80
same,"Crabgrass, Large plant response rating",large crabgrass; [11],20
same,"Crabgrass, Large plant response rating",large crabgrass; [12],10
same,"Plant response rating (0 to 100 scale), Foxtail, Giant",giant foxtail; [10],30
same,"Foxtail, Giant plant response rating",giant foxtail; [11],30
same,"Foxtail, Giant plant response rating",giant foxtail; [12],10
same,"Plant response rating (0 to 100 scale), Lambsquarters",lambsquarters; [10],80
same,Lambsquarters plant response rating,lambsquarters; [11],60
same,"Plant response rating (0 to 100 scale), Morningglory",morningglory; [10],30
same,Morningglory plant response rating,morningglory; [11],60
same,Morningglory plant response rating,morningglory; [12],20
same,"Plant response rating (0 to 100 scale), Pigweed",pigweed; [10],50
same,Pigweed plant response rating,pigweed; [11],40
same,Pigweed plant response rating,pigweed; [12],30
same,"Plant response rating (0 to 100 scale), Velvetleaf",velvetleaf; [13],10
same,Velvetleaf plant response rating,velvetleaf; [11],20
same,Velvetleaf plant response rating,velvetleaf; [12],20
same,Blackgrass plant response rating,blackgrass; [11],20
same,Blackgrass plant response rating,blackgrass; [12],0
same,Wheat plant response rating,"wheat; 500 g ai/ha, scale 0 to 100, 0 no effect, 100 complete control, preemergence",70
same,Wheat plant response rating,wheat; [11],0
same,Wheat plant response rating,wheat; [12],0
same,"Oat, Wild plant response rating",wild oat; [11],0
same,"Oat, Wild plant response rating",wild oat; [12],0
same,Rice plant response rating,rice [2],50
same,"Sedge, Umbrella plant response rating",[3],90
same,Ducksalad plant response rating,ducksalad [4],80
same,Barnyardgrass plant response rating,barnyardgrass [5],80
same,Rice plant response rating,"rice [6]; 62 g ai/ha, scale 0 to 100",0
same,Rice plant response rating,rice [6]; [14],0
same,Rice plant response rating,rice [6]; [15],20
same,"Plant response rating, Rice",rice [6]; [16],40
same,"Sedge, Umbrella plant response rating","[7]; 62 g ai/ha, scale 0 to 100",20
same,"Sedge, Umbrella plant response rating",[7]; [14],60
same,"Sedge, Umbrella plant response rating",[7]; [15],75
same,"Plant response rating, Sedge, Umbrella",[7]; [16],75
same,Ducksalad plant response rating,"ducksalad [8]; 62 g ai/ha, scale 0 to 100",20
same,Ducksalad plant response rating,ducksalad [8]; [14],40
same,Ducksalad plant response rating,ducksalad [8]; [15],40
same,"Plant response rating, Ducksalad",ducksalad [8]; [16],40
same,Barnyardgrass plant response rating,barnyardgrass [9]; [17],0
same,Barnyardgrass plant response rating,barnyardgrass [9]; [14],0
same,Barnyardgrass plant response rating,barnyardgrass [9]; [15],0
same,"Plant response rating, Barnyardgrass",barnyardgrass [9]; [16],20
CCNC(=O)c1cccc(NC(=O)c2nn(C(C)C)nc2CC)c1 [Compound 357],"Plant response rating (0 to 100 scale), Barnyardgrass",barnyardgrass [1]; [10],30
same,Barnyardgrass plant response rating,barnyardgrass [1]; [18],0
same,"Plant response rating, Barnyardgrass",barnyardgrass [1]; [19],80
same,Barnyardgrass plant response rating,barnyardgrass [1]; [20],10
same,"Plant response rating (0 to 100 scale), Surinam Grass",Surinam grass; [10],30
same,Surinam Grass plant response rating,Surinam grass; [18],10
same,"Plant response rating, Surinam Grass",Surinam grass; [19],80
same,Surinam Grass plant response rating,Surinam grass; [20],20
same,"Plant response rating (0 to 100 scale), Cocklebur",cocklebur; [10],0
same,Cocklebur plant response rating,cocklebur; [18],10
same,"Plant response rating, Cocklebur",cocklebur; [19],30
same,Cocklebur plant response rating,cocklebur; [20],20
same,"Plant response rating (0 to 100 scale), Corn",corn; [10],0
same,Corn plant response rating,corn; [18],0
same,"Plant response rating, Corn",corn; [19],80
same,Corn plant response rating,corn; [20],20
same,"Plant response rating (0 to 100 scale), Crabgrass, Large",large crabgrass; [10],70
same,"Crabgrass, Large plant response rating",large crabgrass; [18],0
same,"Plant response rating, Crabgrass, Large",large crabgrass; [19],100
same,"Crabgrass, Large plant response rating",large crabgrass; [20],10
same,"Plant response rating (0 to 100 scale), Foxtail, Giant",giant foxtail; [10],20
same,"Foxtail, Giant plant response rating",giant foxtail; [18],30
same,"Plant response rating, Foxtail, Giant",giant foxtail; [19],100
same,"Foxtail, Giant plant response rating",giant foxtail; [20],40
same,"Plant response rating (0 to 100 scale), Lambsquarters",lambsquarters; [10],90
same,Lambsquarters plant response rating,lambsquarters; [18],30
same,"Plant response rating, Lambsquarters",lambsquarters; [19],100
same,Lambsquarters plant response rating,lambsquarters; [20],60
same,"Plant response rating (0 to 100 scale), Morningglory",morningglory; [10],10
same,Morningglory plant response rating,morningglory; [18],10
same,"Plant response rating, Morningglory",morningglory; [19],70
same,Morningglory plant response rating,morningglory; [20],30
same,"Plant response rating (0 to 100 scale), Pigweed",pigweed; [10],100
same,Pigweed plant response rating,pigweed; [18],20
same,"Plant response rating, Pigweed",pigweed; [19],100
same,Pigweed plant response rating,pigweed; [20],40
same,"Plant response rating (0 to 100 scale), Velvetleaf",velvetleaf; [13],0
same,Velvetleaf plant response rating,velvetleaf; [18],20
same,Velvetleaf plant response rating,velvetleaf; [20],20
same,Blackgrass plant response rating,blackgrass; [18],0
same,Blackgrass plant response rating,blackgrass; [20],30
same,Wheat plant response rating,wheat; [18],0
same,Wheat plant response rating,wheat; [20],0
same,"Oat, Wild plant response rating",wild oat; [18],0
same,"Oat, Wild plant response rating",wild oat; [20],30
same,Rice plant response rating,rice [2],70
same,"Sedge, Umbrella plant response rating",[3],80
same,Ducksalad plant response rating,ducksalad [4],80
same,Barnyardgrass plant response rating,barnyardgrass [5],70
same,Rice plant response rating,"rice [6]; 62 g ai/ha, scale 0 to 100",0
same,Rice plant response rating,rice [6]; [14],0
same,Rice plant response rating,rice [6]; [15],45
same,"Plant response rating, Rice",rice [6]; [16],70
same,"Sedge, Umbrella plant response rating","[7]; 62 g ai/ha, scale 0 to 100",40
same,"Sedge, Umbrella plant response rating",[7]; [14],85
same,"Sedge, Umbrella plant response rating",[7]; [15],90
same,"Plant response rating, Sedge, Umbrella",[7]; [16],95
same,Ducksalad plant response rating,"ducksalad [8]; 62 g ai/ha, scale 0 to 100",30
same,Ducksalad plant response rating,ducksalad [8]; [14],30
same,Ducksalad plant response rating,ducksalad [8]; [15],45
same,"Plant response rating, Ducksalad",ducksalad [8]; [16],95
same,Barnyardgrass plant response rating,barnyardgrass [9]; [17],0
same,Barnyardgrass plant response rating,barnyardgrass [9]; [14],0
same,Barnyardgrass plant response rating,barnyardgrass [9]; [15],30
same,"Plant response rating, Barnyardgrass",barnyardgrass [9]; [16],55
